Activity calls are given as the source filed them. The calls are words filed in the database; no cut-off is given here.
How the values were obtained:
SK-N-AS [1] = test: Growth inhibition of human SK-N-AS cells at 1 uM after 72 hrs by MTT assay relative to control; type: functional; conditions: read-out: GI
SK-N-AS [2] = test: Induction of apoptosis in human SK-N-AS cells assessed as decrease in Bcl-2 mRNA expression level at 4 uM after 24 hrs by real-time PCR method relative to control; type: functional; set-up: scale not given: the % may be the effect or the level left
IMR-32 [3] = test: Induction of apoptosis in human IMR32 cells assessed as decrease in Bcl-2 mRNA expression level at 4 uM after 24 hrs by real-time PCR method relative to control; type: functional; set-up: scale not given: the % may be the effect or the level left
SK-N-AS [4] = test: Induction of apoptosis in human SK-N-AS cells assessed as increase in caspase-3 activity at 4 uM by CPP32 based colorimetric assay; type: functional, cell-based; conditions: TDE = time-dependent effect
IMR-32 [5] = test: Growth inhibition of human IMR32 cells at 0.1 uM after 72 hrs by MTT assay relative to control; type: functional; conditions: IMR-32, 72 h, read-out: GI
SK-N-AS [6] = test: Growth inhibition of human SK-N-AS cells at 1 uM after 24 hrs by MTT assay relative to control; type: functional; conditions: read-out: GI
SK-N-AS [7] = test: Cell cycle arrest in human SK-N-AS cells at 4 uM up to 72 hrs by propidium iodide staining based flow cytometry; type: functional
IMR-32 [8] = test: Reduction in N-myc mRNA expression level in human IMR32 cells at 4 uM after 8 hrs by real-time PCR method; type: functional, cell-based
IMR-32 [9] = test: Growth inhibition of human IMR32 cells at 0.01 uM after 72 hrs by MTT assay relative to control; type: functional; conditions: IMR-32, 72 h, read-out: GI
IMR-32 [10] = test: Growth inhibition of human IMR32 cells at 0.4 uM after 72 hrs by MTT assay relative to control; type: functional; conditions: IMR-32, 72 h, read-out: GI
SK-N-AS [11] = test: Induction of apoptosis in human SK-N-AS cells assessed as increase in caspase-3 activity at 4 uM after 24 hrs by CPP32 based colorimetric assay relative to control; type: functional
IMR-32 [12] = test: Induction of apoptosis in human IMR32 cells assessed as decrease in Bcl-2 mRNA expression level at 4 uM after 8 hrs by real-time PCR method; type: functional, cell-based
IMR-32 [13] = test: Reduction in N-myc mRNA expression level in human IMR32 cells at 4 uM after 24 hrs by real-time PCR method relative to control; type: functional; set-up: scale not given: the % may be the effect or the level left
SK-N-AS [14] = test: Cell cycle arrest in human SK-N-AS cells assessed as increase in sub-G1 phase population at 4 uM after 24 hrs by propidium iodide staining based flow cytometry relative to control; type: functional
IMR-32 [15] = test: Growth inhibition of human IMR32 cells at 0.1 uM after 24 hrs by MTT assay relative to control; type: functional; conditions: IMR-32, 24 h, read-out: GI
IMR-32 [16] = test: Induction of apoptosis in human IMR32 cells assessed as decrease in Bcl-2 mRNA expression level at 0.4 to 4 uM after 24 hrs by real-time PCR method relative to control; type: functional; set-up: scale not given: the % may be the effect or the level left
IMR-32 [17] = test: Reduction in N-myc mRNA expression level in human IMR32 cells at 0.4 to 4 uM after 8 hrs by real-time PCR method; type: functional, cell-based
SK-N-AS [18] = test: Cell cycle arrest in human SK-N-AS cells assessed as decrease in S phase population at 0.4 uM after 24 hrs by propidium iodide staining based flow cytometry relative to control; type: functional
SK-N-AS [19] = test: Cell cycle arrest in human SK-N-AS cells assessed as increase in G0/G1 cell population at 0.4 uM after 72 hrs by propidium iodide staining based flow cytometry relative to control; type: functional
SK-N-AS [20] = test: Cell cycle arrest in human SK-N-AS cells assessed as accumulation at S phase at 0.4 uM after 72 hrs by propidium iodide staining based flow cytometry (reference value: 28.55 +/- 0.74%); type: functional
SK-N-AS [21] = test: Induction of apoptosis in human SK-N-AS cells assessed as decrease in Bcl-2 mRNA expression level after 8 hrs by real-time PCR method; type: functional, cell-based
SK-N-AS [22] = test: Cell cycle arrest in human SK-N-AS cells assessed as increase in G0/G1 cell population at 0.4 uM after 24 hrs by propidium iodide staining based flow cytometry relative to control; type: functional
SK-N-AS [23] = test: Cell cycle arrest in human SK-N-AS cells assessed as accumulation at sub-G1 phase at 0.4 uM after 8 hrs by propidium iodide staining based flow cytometry (reference value: 1.13 +/- 0.13%); type: functional
SK-N-AS [24] = test: Antitumor activity against human SK-N-AS cells xenografted in specific-pathogen-free KSN athymic nude mouse assessed as tumor growth inhibition at 50 mg/kg/day administered ip for 2 weeks measured on day 21 relative to control; type: functional; conditions: read-out: TGI
SK-N-AS [25] = test: Cell cycle arrest in human SK-N-AS cells assessed as accumulation at G2/M phase at 0.4 uM after 8 hrs by propidium iodide staining based flow cytometry (reference value: 25.31 +/- 2.89%); type: functional
SK-N-AS [26] = test: Antitumor activity against human SK-N-AS cells xenografted in specific-pathogen-free KSN athymic nude mouse assessed as decrease in tumor weight at 12.5 mg/kg/day administered ip for 2 weeks measured on day 21 relative to control; type: functional; set-up: scale not given: the % may be the effect or the level left
SK-N-AS [27] = test: Cell cycle arrest in human SK-N-AS cells assessed as decrease in G2/M phase population at 0.4 uM after 72 hrs by propidium iodide staining based flow cytometry relative to control; type: functional
SK-N-AS [28] = test: Cell cycle arrest in human SK-N-AS cells assessed as accumulation at G2/M phase at 0.4 uM after 24 hrs by propidium iodide staining based flow cytometry (reference value: 25.31 +/- 2.89%); type: functional
SK-N-AS [29] = test: Induction of apoptosis in human SK-N-AS cells assessed as decrease in Bcl-2 mRNA expression level after 24 hrs by real-time PCR method; type: functional, cell-based
SK-N-AS [30] = test: Cell cycle arrest in human SK-N-AS cells assessed as decrease in G2/M phase population at 0.4 uM after 48 hrs by propidium iodide staining based flow cytometry relative to control; type: functional
SK-N-AS [31] = test: Cell cycle arrest in human SK-N-AS cells assessed as decrease in S phase population at 0.4 uM after 48 hrs by propidium iodide staining based flow cytometry relative to control; type: functional
SK-N-AS [32] = test: Induction of apoptosis in human SK-N-AS cells assessed as increase in caspase-3 activity at 4 uM after 8 hrs by CPP32 based colorimetric assay relative to control; type: functional
SK-N-AS [33] = test: Cell cycle arrest in human SK-N-AS cells assessed as increase in G0/G1 cell population at 0.4 uM after 48 hrs by propidium iodide staining based flow cytometry relative to control; type: functional
SK-N-AS [34] = test: Induction of apoptosis in human SK-N-AS cells assessed as increase in caspase-3 activity at 0.4 uM after 24 hrs by CPP32 based colorimetric assay relative to control; type: functional
SK-N-AS [35] = test: Cell cycle arrest in human SK-N-AS cells at 4 uM by propidium iodide staining based flow cytometry; type: functional; conditions: TDE = time-dependent effect
SK-N-AS [36] = test: Induction of apoptosis in human SK-N-AS cells assessed as decrease in Bcl-2 mRNA expression level at 0.4 uM after 24 hrs by real-time PCR method relative to control; type: functional; set-up: scale not given: the % may be the effect or the level left
SK-N-AS [37] = test: Cell cycle arrest in human SK-N-AS cells assessed as accumulation at S phase at 0.4 uM after 8 hrs by propidium iodide staining based flow cytometry (reference value: 28.55 +/- 0.74%); type: functional
SK-N-AS [38] = test: Cell cycle arrest in human SK-N-AS cells assessed as accumulation at sub-G1 phase at 0.4 uM after 48 hrs by propidium iodide staining based flow cytometry (reference value: 1.13 +/- 0.13%); type: functional
SK-N-AS [39] = test: Antitumor activity against human SK-N-AS cells xenografted in specific-pathogen-free KSN athymic nude mouse assessed as decrease in tumor weight at 50 mg/kg/day administered ip for 2 weeks measured on day 21 relative to control; type: functional; set-up: scale not given: the % may be the effect or the level left
IMR-32 [40] = test: Induction of apoptosis in human IMR32 cells assessed as decrease in Bcl-2 mRNA expression level at 0.4 to 4 uM after 8 hrs by real-time PCR method; type: functional, cell-based
Mus musculus = test: Toxicity in specific-pathogen-free KSN athymic nude mouse xenografted with human SK-N-AS cells assessed as change in body weight at 12.5 to 50 mg/kg/day administered ip for 2 weeks measured on day 21; type: organism-based; conditions: in vivo, 336 h
SK-N-AS [41] = test: Antitumor activity against human SK-N-AS cells xenografted in specific-pathogen-free KSN athymic nude mouse assessed as tumor growth inhibition at 12.5 mg/kg/day administered ip for 2 weeks measured on day 21 relative to control; type: functional; conditions: read-out: TGI
SK-N-AS [42] = test: Induction of apoptosis in human SK-N-AS cells assessed as increase in caspase-3 activity at 0.4 uM after 8 hrs by CPP32 based colorimetric assay relative to control; type: functional
SK-N-AS [43] = test: Cell cycle arrest in human SK-N-AS cells assessed as accumulation at G0/G1 phase at 0.4 uM after 8 hrs by propidium iodide staining based flow cytometry (reference value: 46.14 +/- 3.63%); type: functional
SK-N-AS [44] = test: Cell cycle arrest in human SK-N-AS cells assessed as increase in sub-G1 phase population at 0.4 uM after 24 hrs by propidium iodide staining based flow cytometry relative to control; type: functional
SK-N-AS [45] = test: Cell cycle arrest in human SK-N-AS cells assessed as accumulation at sub-G1 phase at 0.4 uM after 72 hrs by propidium iodide staining based flow cytometry (reference value: 1.13 +/- 0.13%); type: functional
SK-N-AS [46] = test: Growth inhibition of human SK-N-AS cells at 4 uM after 24 hrs by MTT assay relative to control; type: functional; conditions: read-out: GI
SK-N-AS [47] = test: Growth inhibition of human SK-N-AS cells at 4 uM after 72 hrs by MTT assay relative to control; type: functional; conditions: read-out: GI

CC1=C(/C=C/C(C)=C/C=C/C(C)=C/C(=O)Nc2ccc(O)cc2)C(C)(C)CCC1 [FENRETINIDE]
inhibition of growth at 1 µM (SK-N-AS [1]): 10% | Activity (SK-N-AS [2]): 62% | Activity (IMR-32 [3]): 69% | Activity (SK-N-AS [4]): Tde | inhibition of growth at 0.1 µM (IMR-32 [5]): 17% | inhibition of growth at 1 µM (SK-N-AS [6]): 2% | Activity (SK-N-AS [7]): Active | Activity (IMR-32 [8]): inactive | inhibition of growth at 0.01 µM (IMR-32 [9]): 15% | inhibition of growth at 0.4 µM (IMR-32 [10]): 27% | fold change (FC) (SK-N-AS [11]): 4.7 | Activity (IMR-32 [12]): inactive | Activity (IMR-32 [13]): 27% | fold change (FC) (SK-N-AS [14]): 5 | inhibition of growth at 0.1 µM (IMR-32 [15]): 4%

CCCCCCCCCCCCNc1ccc(O)cc1
inhibition of growth at 1 µM (SK-N-AS [1]): 83 to 90% | Activity (IMR-32 [16]): 63% | Activity (IMR-32 [17]): inactive | fold change (FC) (SK-N-AS [18]): 0.73 | fold change (FC) (SK-N-AS [19]): 1.17 | Activity (SK-N-AS [20]): 28.8% | Activity (SK-N-AS [2]): 19% | Activity (SK-N-AS [21]): inactive | Activity (SK-N-AS [4]): Tde | fold change (FC) (SK-N-AS [22]): 1.18 | Activity (SK-N-AS [23]): 1.19% | inhibition in vivo at 50 mg/kg/day (SK-N-AS [24]): 58% | Activity (SK-N-AS [25]): 30.56% | Activity (SK-N-AS [26]): 33% | inhibition of growth at 0.1 µM (IMR-32 [5]): 92% | fold change (FC) (SK-N-AS [27]): 0.68 | inhibition of growth at 1 µM (SK-N-AS [6]): 82% | Activity (SK-N-AS [28]): 24.84% | Activity (SK-N-AS [29]): Dose-dependent effect | fold change (FC) (SK-N-AS [30]): 0.79 | fold change (FC) (SK-N-AS [31]): 0.89 | inhibition of growth at 0.01 µM (IMR-32 [9]): 15% | fold change (FC) (SK-N-AS [32]): 3.6 | fold change (FC) (SK-N-AS [33]): 1.18 | fold change (FC) (SK-N-AS [34]): 5.3 | inhibition of growth at 0.4 µM (IMR-32 [10]): 100% | Activity (SK-N-AS [35]): Tde | Activity (SK-N-AS [36]): 35% | fold change (FC) (SK-N-AS [11]): 12 | Activity (SK-N-AS [37]): 22.4% | Activity (SK-N-AS [38]): 5.57% | Activity (SK-N-AS [39]): 37% | Activity (IMR-32 [40]): inactive | Activity (Mus musculus): Non-Toxic | inhibition in vivo at 12.5 mg/kg/day (SK-N-AS [41]): 40% | fold change (FC) (SK-N-AS [42]): 1.6 | Activity (IMR-32 [13]): 52% | fold change (FC) (SK-N-AS [14]): 23 | Activity (SK-N-AS [43]): 47.04% | fold change (FC) (SK-N-AS [44]): 3 | Activity (SK-N-AS [45]): 9.78% | inhibition of growth at 0.1 µM (IMR-32 [15]): 78%

CCCCCCCCCC(=O)Nc1ccc(O)cc1
inhibition of growth at 4 µM (SK-N-AS [46]): 5% | inhibition of growth at 4 µM (SK-N-AS [47]): 13%
